In US8685974B2 (Bayer CropScience AG, priority 2009, dated 2014):
Counter-ions that a name gives are not always drawn.

Experiment: physchem
Conditions: pH 2.7
In the case of `CCC(C)n1ncc(I)c1-c1cccs1` (centres unmarked) [1-sec-Butyl-4-iodo-5-(2-thienyl)-1H-pyrazole], the log p was 4.12. With `Cc1csc(-c2ccnn2C)c1` [1-Methyl-5-(4-methyl-2-thienyl)-1H-pyrazole] the log p was 2.26. Work on `CCC(C)n1cc(-c2ccnc(C#N)c2)c(-c2ccc(Cl)s2)n1` (centres unmarked) [2-Cyano-4-[1-sec-butyl-3-(5-chloro-2-thienyl)-1H-pyrazol-4-yl]pyridine] yielded a log p of 4.41. With `CC(C)n1nccc1-c1cc(Br)cs1` [5-(4-Bromo-2-thienyl)-1-isopropyl-1H-pyrazole] the log p was 3.44. `Cc1csc(C(=O)C=CN(C)C)c1` [3-(Dimethylamino)-1-(4-methyl-2-thienyl)prop-2-en-1-one] showed a log p of 1.65. With `CC(C)n1cc(-c2ccncc2)c(-c2ccc(Cl)s2)n1` [4-[1-Isopropyl-3-(5-chloro-2-thienyl)-1H-pyrazol-4-yl]pyridine] the log p was 1.82. `CCCn1ccc(-c2cccs2)n1` [1-Propyl-3-(2-thienyl)-1H-pyrazole] showed a log p of 2.58. For `CC(C)Cn1ncc(-c2ccnc(Cl)c2)c1-c1ccc(Cl)s1` [2-Chloro-4-[1-isobutyl-5-(5-chloro-2-thienyl)-1H-pyrazol-4-yl]pyridine], the log p was 4.62. `O=C(Cc1ccnc(Cl)n1)c1ccc(Cl)s1` [2-(2-Chloropyrimidin-4-yl)-1-(5-chloro-2-thienyl)ethanone] showed a log p of 2.6. For `N#Cc1[nH]nc(-c2ccc(Cl)s2)c1-c1ccncc1` [3-(5-Chloro-2-thienyl)-4-(pyridin-4-yl)-1H-pyrazole-5-carbonitrile], the log p was 1.53. Work on `CC(=O)c1ccc(-c2n[nH]cc2-c2ccncc2)s1` [1-{5-[4-(pyridin-4-yl)-1H-pyrazol-3-yl]-2-thienyl}ethanone hydrochloride] yielded a log p of 0.62. Work on `CCC[CH2][Sn]([CH2]CCC)([CH2]CCC)[c]1c(-c2ccncc2)cnn1C1CCCCO1` (centres unmarked) [4-[1-(tetrahydro-2H-pyran-2-yl)-5-(tributylstannyl)-1H-pyrazol-4-yl]pyridine] yielded a log p of 4.89. Work on `Clc1ccc(-c2n[nH]cc2-c2ccncc2)s1` [4-[3-(5-chloro-2-thienyl)-1H-pyrazol-4-yl]pyridine] yielded a log p of 0.9. Compound `Clc1ccc(-c2n[nH]c(Br)c2-c2ccncc2)s1` [4-[5-Bromo-3-(5-chloro-2-thienyl)-1H-pyrazol-4-yl]pyridine] has a log p of 1.4. `CCCn1cc(I)c(-c2cccs2)n1` [4-Iodo-1-propyl-3-(2-thienyl)-1H-pyrazole] gave a log p of 3.65. For `Brc1ccc(-c2n[nH]cc2-c2ccncc2)s1` [4-[3-(5-Bromo-2-thienyl)-1H-pyrazol-4-yl]pyridine], the log p was 0.94. Compound `CC(C)Cn1cc(-c2ccncc2)c(-c2ccc(C#N)s2)n1` [4-[1-Isobutyl-3-(5-cyano-2-thienyl)-1H-pyrazol-4-yl]pyridine] has a log p of 1.74. Compound `CCn1ccc(-c2cc(C)cs2)n1` [1-Ethyl-3-(4-methyl-2-thienyl)-1H-pyrazole] has a log p of 2.64. In the case of `CCCc1cc(-c2cccs2)n(C)n1` [1-Methyl-3-propyl-5-(2-thienyl)-1H-pyrazole], the log p was 2.9. With `CSc1nccc(-c2c[nH]nc2-c2ccc(Cl)s2)n1` [4-[3-(5-Chloro-2-thienyl)-1H-pyrazol-4-yl]-2-(methylsulfanyl)pyrimidine] the log p was 2.78. For `CCC(C)n1cc(-c2ccncc2)c(-c2ccc(Cl)s2)n1` (centres unmarked) [4-[1-sec-Butyl-3-(5-chloro-2-thienyl)-1H-pyrazol-4-yl]pyridine], the log p was 2.1. `CCC(C)n1cc(-c2ccncc2)c(-c2cc(Cl)cs2)n1` (centres unmarked) [4-[1-sec-Butyl-3-(4-chloro-2-thienyl)-1H-pyrazol-4-yl]pyridine] showed a log p of 1.83. In the case of `CC(C)Nc1nccc(-c2c[nH]nc2-c2ccc(Cl)s2)n1` [4-[3-(5-Chloro-2-thienyl)-1H-pyrazol-4-yl]-2-(isopropylamino)pyrimidine], the log p was 1.79. In the case of `CN(C)C=CC(=O)c1cc(Cl)cs1` [1-(4-Chloro-2-thienyl)-3-(dimethylamino)prop-2-en-1-one], the log p was 1.86. In the case of `CCC(C)n1nc(-c2ccc(Cl)s2)c(-c2ccncc2)c1SC` (centres unmarked) [4-[3-(5-Chloro-2-thienyl)-5-methylsulfanyl-1-secbutyl-1H-pyrazol-4-yl]pyridine], the log p was 3.35. `CCCn1nccc1-c1cccs1` [1-Propyl-5-(2-thienyl)-1H-pyrazole] showed a log p of 2.64. `Clc1ccc(-c2n[nH]c(C3CC3)c2-c2ccncc2)s1` [4-[3-(5-Chloro-2-thienyl)-5-cyclopropyl-1H-pyrazol-4-yl]pyridine] showed a log p of 1.29. With `CCn1ccc(-c2cccs2)n1` [1-Ethyl-3-(2-thienyl)-1H-pyrazole] the log p was 2.14. `CN(C)C=C(C(=O)c1ccc(Cl)s1)c1ccncc1` [1-(5-chloro-2-thienyl)-3-(dimethylamino)-2-(pyridin-4-yl)prop-2-en-1-one] gave a log p of 1.07. Work on `CC(C)Nc1nccc(C(=CN(C)C)C(=O)c2ccc(Cl)s2)n1` [3-(Dimethylamino)-1-(5-chloro-2-thienyl)-2-[2-(isopropylamino)pyrimidin-4-yl]prop-2-en-1-one] yielded a log p of 1.67. For `CCC(C)n1ncc(-c2ccncc2)c1-c1ccc(F)s1` (centres unmarked) [4-[1-sec-butyl-5-(5-fluoro-2-thienyl)-1H-pyrazol-4-yl]pyridine], the log p was 1.84. For `CC#Cc1[nH]nc(-c2ccc(Cl)s2)c1-c1ccncc1` [4-[3-(5-Chloro-2-thienyl)-5-(prop-1-yn-1-yl)-1H-pyrazol-4-yl]pyridine], the log p was 1.44. With `FC(F)(F)c1ccc(-c2n[nH]cc2-c2ccncc2)s1` [4-[3-(5-trifluoromethyl-2-thienyl)-1H-pyrazol-4-yl]pyridine hydrochloride] the log p was 1.34. Compound `CC(C)n1cc(I)c(-c2cccs2)n1` [4-Iodo-1-isopropyl-3-(2-thienyl)-1H-pyrazole] has a log p of 3.71. Work on `CCn1nc(-c2ccc(Cl)s2)c(Br)c1C` [4-Bromo-3-(5-chloro-2-thienyl)-1-ethyl-5-methyl-1H-pyrazole] yielded a log p of 4.54. Work on `CCC(C)n1ncc(I)c1-c1cc(Cl)cs1` (centres unmarked) [1-sec-Butyl-5-(4-chloro-2-thienyl)-4-iodo-1H-pyrazole] yielded a log p of 4.72. In the case of `Ic1c[nH]nc1-c1cccs1` [4-Iodo-3-(2-thienyl)-1H-pyrazole], the log p was 2.1. `Cc1csc(-c2ccn(C)n2)c1` [1-Methyl-3-(4-methyl-2-thienyl)-1H-pyrazole] showed a log p of 2.14. `CCC(C)n1nc(-c2ccc(Cl)s2)c(-c2ccncc2)c1Cl` (centres unmarked) [4-[5-Chloro-1-secbutyl-3-(5-chloro-2-thienyl)-1H-pyrazol-4-yl]pyridine] gave a log p of 3.44. `CC(C)n1nccc1-c1cccs1` [1-Isopropyl-5-(2-thienyl)-1H-pyrazole] gave a log p of 2.69. `CCCc1cc(-c2sccc2C)nn1C` [1-Methyl-3-(3-methyl-2-thienyl)-5-propyl-1H-pyrazole] showed a log p of 3.34. With `O=C(Cc1ccncc1)c1ccc(Cl)s1` [1-(5-chloro-2-thienyl)-2-(pyridin-4-yl)ethanone] the log p was 1.17. With `CCn1cc(I)c(-c2cccs2)n1` [1-Ethyl-4-iodo-3-(2-thienyl)-1H-pyrazole] the log p was 3.13. Compound `CCn1nccc1-c1cc(Br)cs1` [5-(4-Bromo-2-thienyl)-1-ethyl-1H-pyrazole] has a log p of 2.92. In the case of `CCC(C)n1ccc(-c2cc(C)cs2)n1` (centres unmarked) [1-sec-Butyl-3-(4-methyl-2-thienyl)-1H-pyrazole], the log p was 3.63. For `CCC(C)n1cc(I)c(-c2cc(C)cs2)n1` (centres unmarked) [1-sec-Butyl-4-iodo-3-(4-methyl-2-thienyl)-1H-pyrazole], the log p was 4.79. In the case of `CN(C)C=C(C(=O)c1ccc(Cl)s1)c1ccnc(Cl)c1` [1-(5-chloro-2-thienyl)-3-(dimethylamino)-2-(2-chloropyridin-4-yl)prop-2-en-1-one], the log p was 2.58. Work on `CC(C)n1cc(-c2ccnc(S(C)(=O)=O)n2)c(-c2ccc(Cl)s2)n1` [4-[3-(5-Chloro-2-thienyl)-1-isopropyl-1H-pyrazol-4-yl]-2-(methylsulfonyl)pyrimidine] yielded a log p of 3.15. `CC(C)n1ncc(-c2ccncc2)c1-c1ccc(Cl)s1` [4-[1-Isopropyl-5-(5-chloro-2-thienyl)-1H-pyrazol-4-yl]pyridine] gave a log p of 1.7. For `O=C(Cc1ccnc(Cl)c1)c1ccc(Cl)s1` [1-(5-chloro-2-thienyl)-2-(2-chloropyridin-4-yl)ethanone], the log p was 2.94. In the case of `CCCc1c(I)c(-c2cccs2)nn1C` [4-Iodo-1-methyl-5-propyl-3-(2-thienyl)-1H-pyrazole], the log p was 3.92. In the case of `CC(C)Cn1cc(-c2ccnc(N(C(=O)C3CC3)C(=O)C3CC3)c2)c(-c2ccc(Cl)s2)n1` [N-{4-[3-(5-chloro-2-thienyl)-1-isobutyl-1H-pyrazol-4-yl]pyridin-2-yl}-N-(cyclopropylcarbonyl)cyclopropanecarboxamide], the log p was 4.75. Work on `Cc1csc(-c2ccn(C(C)C)n2)c1` [1-Isopropyl-3-(4-methyl-2-thienyl)-1H-pyrazole] yielded a log p of 3.14. `CC(C)n1nc(C2CC2)c(-c2ccncc2)c1-c1ccc(Cl)s1` [4-[3-Cyclopropyl-1-isopropyl-5-(5-chloro-2-thienyl)-1H-pyrazol-4-yl]pyridine] gave a log p of 2.44. Work on `CCC(C)n1cc(I)c(-c2cc(Cl)cs2)n1` (centres unmarked) [1-sec-Butyl-3-(4-chloro-2-thienyl)-4-iodo-1H-pyrazole] yielded a log p of 5.01. `C#CCNc1cc(-c2cn(CC(C)C)nc2-c2ccc(Cl)s2)ccn1` [2-Propargylamino-4-[1-isobutyl-3-(5-chloro-2-thienyl)-1H-pyrazol-4-yl]pyridine] gave a log p of 2.3. For `Clc1cc(-c2c[nH]nc2-c2ccc(Cl)s2)ccn1` [2-Chloro-4-[3-(5-chloro-2-thienyl)-1H-pyrazol-4-yl]pyridine], the log p was 2.75. Compound `CC(C)Nc1nccc(-c2cn(C(C)C)nc2-c2ccc(Cl)s2)n1` [N-Isopropyl-4-[3-(5-chloro-2-thienyl)-1-isopropyl-1H-pyrazol-4-yl]pyrimidin-2-amine] has a log p of 2.82. In the case of `CC(C)n1ccc(-c2cccs2)n1` [1-Isopropyl-3-(2-thienyl)-1H-pyrazole], the log p was 2.66. With `CSc1nccc(-c2cn(C(C)C)nc2-c2ccc(Cl)s2)n1` [4-[3-(5-Chloro-2-thienyl)-1-isopropyl-1H-pyrazol-4-yl]-2-(methylsulfanyl)pyrimidine] the log p was 4.44. `Cc1csc(-c2cc[nH]n2)c1` [3-(4-Methyl-2-thienyl)-1H-pyrazole] showed a log p of 1.72. For `CC(=O)N(C(C)=O)c1nccc(-c2cn(C(C)C)nc2-c2ccc(Cl)s2)n1` [N-Acetyl-N-{4-[3-(5-chloro-2-thienyl)-1-isopropyl-1H-pyrazol-4-yl]pyrimidin-2-yl}acetamide], the log p was 3.33.
